What all share (assay type): cell-based, mouse
One test has as its system ID8 cells. The test is described as follows: PARP inhibitor IC50 analysis through MTS assay in ID8 cells incubated with vSIRPα-siBRCA. The method, then:
(§1) FIG. 9A, FIG. 9B, FIG. 9C, and FIG. 9D illustrate a result of treating ID8 cells incubated with vSIRPα-siBRCA with a PARP inhibitor (Olaparib or Talazoparib) and performing IC50 analysis through MTS assay.
(§2) Knockdown and knockout of BRCA genes were highly correlated with the efficacy of synthetic lethal cell death induction of the PARP inhibitor. Therefore, whether the PARP inhibitor, after silencing the expression of BRCA1/2, could induce apoptosis of tumor cells was required confirmation. BRCA1 and/or BRCA2 may be effectively knocked down by treating ID8 cells with the vSIRPα-siBRCA conjugates. Therefore ID8 cells were treated with the vSIRPα-siBRCA conjugates for 48 hours and then treated with Talazoparib at various concentrations for 72 hours.
In general terms: Tetrazolium dyes change colour on reduction, which living cells bring about.

For another test, the system named is phospho-H2AX (γH2AX). The experiment in a line: DNA damage analysis by flow cytometry after PARP inhibitor in BRCA silenced cells. As to conditions: for γH2AX increase compared with control group: 0.01 μM Talazoparib. The procedure:
The ID8 cells were dispensed in a 6-well plate at 2×10^5 cells/dish and incubated for 48 hours with PBS, vSIRPα-siBRCA1, vSIRPα-siBRCA2, and vSIRPα-siBRCA1/2. Subsequently, the cells were trypsinized and dispensed in a 6-well plate at 2×10^5 cells/dish, and treated with Olaparib or Talazoparib at a predetermined concentration for 24 to 48 hours.
Subsequently, the cells were detached with Trypsin-EDTA, blocked for 30 minutes using a PBS solution containing 1% FBS, and then a phospho-H2AX antibody was incubated for 2 hours. Thereafter, after PBS washing, flow cytometry was performed using a FACS device to measure phospho-H2AX antibody staining
To evaluate the level of PARP inhibitor-mediated DNA damage in BRCA gene-silenced cells, the expression levels of phospho-H2AX (γH2AX), a DNA damage marker, were measured by flow cytometry.
ID8 cells were treated with vSIRPα-siBRCA1 and vSIRPα-siBRCA2 alone or in combination, respectively, and after 48 hours, each cell type was treated with a PARP inhibitor, Talazoparib, and incubated for 48 hours.
Background: In flow cytometry, cells or beads pass a laser one at a time.

For test [1], the system named is BRCA1-deficient ID8 cells. The test is described as follows: PARP inhibitor IC50 analysis through MTS assay in BRCA1-deficient ID8 cells with BRCA2 knockdown. As to conditions: BRCA1-deficient ID8 cells with BRCA2 knocked down. The method, then:
as §1, §2

Where [2] appears, read: BRCA1-knockdown (silenced) ID8 cells, vSIRPα-siBRCA 48 hours then PARP inhibitor 72 hours.
Where [3] appears, read: BRCA1/2 silenced ID8 cells (vSIRPα-siBRCA1 and vSIRPα-BRCA2 together), 48 hours then PARP inhibitor 72 hours.
Setting [4] is: BRCA2-knockdown (silenced) ID8 cells, vSIRPα-siBRCA 48 hours then PARP inhibitor 72 hours.

Molecules are shown by their SMILES.

Consider `Cn1ncnc1[C@H]1c2n[nH]c(=O)c3cc(F)cc(c23)N[C@@H]1c1ccc(F)cc1` [Talazoparib], for which the “fold reduction of IC50 of PARP inhibitor vs BRCA normal-expressing (control) ID8 cells” value amounted to 3.23 fold with ID8 cells (setting [2]), 28.11 fold in the test with ID8 cells (setting [3]) and 4.34 fold in the test on ID8 cells (setting [4]). Further, the “γH2AX increase compared with control group” value with phospho-H2AX (γH2AX) (BRCA1/2 silenced ID8 cells (both conjugates 48 hours)) is ~3.06 fold; in the test on phospho-H2AX (γH2AX) (BRCA1 silenced ID8 cells (vSIRPα-siBRCA1 48 hours)), “about 1.32 fold”; with phospho-H2AX (γH2AX) (BRCA2 silenced ID8 cells (vSIRPα-siBRCA2 48 hours)), ~2.16 fold. Moreover, in the test on phospho-H2AX (γH2AX) (ID8-sgBRCA1/2 cells, Talazoparib 48 hours), the “expression levels of γH2AX” value was “significantly increased”. Also, in test [1], the “fold reduction of IC50 of PARP inhibitor by BRCA2 knockdown” value is “about 3.6 fold”.

On to `O=C(c1cc(Cc2n[nH]c(=O)c3ccccc23)ccc1F)N1CCN(C(=O)C2CC2)CC1` [Olaparib], for which the “fold reduction of IC50 of PARP inhibitor vs BRCA normal-expressing (control) ID8 cells” value in the test with ID8 cells (setting [2]) is listed as “about 3.76 fold”; with ID8 cells (setting [3]) it was “about 13.97 fold”; in the test on ID8 cells (setting [4]), “about 2.77 fold”.

The values are drawn from patent US20250019705A1, “PHARMACEUTICAL COMPOSITION FOR PREVENTING OR TREATING TARGET CANCER INCLUDING BRCA-SPECIFIC siRNA AS ACTIVE INGREDIENT” (KOREA INSTITUTE OF SCIENCE AND TECHNOLOGY, priority 2023, published 2025).
